In US10342869B2, “Compositions comprising anti-CD38 antibodies and lenalidomide” (SANOFI, priority 2012, dated 2019):

Assays:
tumor cells [1] = conditions: reported for other CD38 antibodies; cited from earlier work
RPMI-8226 tumors = assay: RPMI-8226 hind-flank xenograft model (Example 3, FIGS. 13-14); assay type: in vivo, mice; conditions: RPMI-8226 xenograft; hu38SB19 twice weekly × 2 wk IV; lenalidomide qdx7×3 wk PO
Protocol: Lenolidomide (TC27682) was obtained from AK Scientific Inc. (Mountain View, Calif.) and prepared as a suspension in 1% (w/v) carboxymethyl cellulose (Sigma). Preparation was made using a mortar and pestle to generate a slurry suspension in the vehicle, diluted to the appropriate concentration, and used for dosing by oral gavage. Lenalidomide was administered qdx7×3 wk PO.
Zion Animal Barrier Facility.
RPMI-8226 were cultured in RPMI1640+10% FBS+4 mM L-glutamine.

[2] = test system: RPMI-8226 multiple myeloma model; assay: RPMI-8226 subcutaneous multiple myeloma xenograft mouse model; conditions: RPMI-8226 xenograft, hu38SB19 15 mg/kg/injection IV 2x/wk × 2 wk, lenalidomide 15 mg/kg/day PO QD × 21 d
Text: (§1) The subcutaneous multiple myeloma (MM) xenograft mouse models were established using H929 and RPMI8226 cell lines. Specifically, 5-6 week old female Balb/c Scid mice were obtained from Jackson Lab. Mice were housed for 7-10 days prior to implantation. Mice were housed in a dedicated room in the UCSF Mt Zion Animal Barrier Facility. NCI-H929 and RPMI-8226 cells were obtained from the German Collection of Microorganisms and Cell Cultures, DSMZ, (Deutsche Sammlung von Mikroorganismen and Zellkulturen), and grown in sterile suspension culture in T225 flasks as follows: NCI-H929:RPMI1640+20% FBS+4 mM L-glutamine+1 mM sodium pyruvate+50 μM mercaptoethanol. RPMI-8226:RPMI1640+10% FBS+4 mM L-glutamine.
(§2) At the time of implantation, mice were shaved on the right flank and shoulder region and anesthetized with ip avertin. MM cells suspended in serum free RPMI 1640 media diluted 1:1 with Matrigel (BD) at a concentration of 1×10^8 cells per ml were injected sc into the right flank in 100 μL volume (1×10^7 cells) using a 1 ml syringe and 25 g needle. Mice were monitored twice weekly for the appearance of tumors and once tumors were visible, measurements were collected twice weekly for body weight and tumor volume. Electronic balance and calipers were used and data was collected directly into a study management program (Study Director). When the mean tumor volume reached about 150-200 mm^3, the mice were distributed into treatment groups of 8-10 mice per groups and dosing was begun.
(§3) Data were collected using electronic balance and calipers using a study management application called StudyLog (Study Director).
(§4) Antitumor activity was determined according to NCI standards based on the ratio of the median tumor volume change of the treated/median tumor volume change of the control×100 (% ΔT/ΔC). Low numerical values for ΔT/ΔC describe stronger anti-tumor activity. Anti-tumor activity is defined as ΔT/ΔC≤40% at minimum. ΔT/ΔC<10% is considered high anti-tumor activity.

[3] = test system: NCI-H929 multiple myeloma model; assay: NCI-H929 subcutaneous multiple myeloma xenograft mouse model; assay type: in vivo, mice; conditions: lenalidomide 1 mg/kg/day PO QD × 21 d; for Activity: hu38SB19 0.5 mg/kg/injection IV 2x/wk × 2 wk
Text: as §1, §2, §3, §4

tumor cells [4] = assay: ADCC on tumor cells; assay type: cell-based
tumor cells [5] = assay: Apoptosis induction on tumor cells (preclinical studies); assay type: cell-based; conditions: without cross-linking

| Molecule | Apoptosis induction (tumor cells [1]) | Tumor growth inhibition (RPMI-8226 tumors) | % ΔT/ΔC (D69) ([2]; D69) [%] | Activity [2] | Activity ([2]; listed as lenalidomide) | % ΔT/ΔC (D69) ([3]; D69, hu38SB19 0.5 mg/kg/injection IV 2x/wk × 2 wk) [%] | Activity [3] | Activity ([3]; listed as lenalidomide) | ADCC activity on tumor cells (tumor cells [4]) | Pro-apoptotic activity on tumor cells (tumor cells [5]) |
| --- | --- | --- | --- | --- | --- | --- | --- | --- | --- | --- |
| Daratumumab: CD38 antibody reported to induce apoptosis only after cross-linking | able to induce apoptosis only after cross-linking with a secondary antibody | – | – | – | – | – | – | – | – | – |
| Nc1cccc2c1CN(C1CCC(=O)NC1=O)C2=O (racemic) [Lenalidomide, (RS)-3-(4-amino-1-oxo-3H-isoindol-2-yl)piperidine-2,6-dione] | – | not robustly sensitive to single-agent therapy | 61 | Inactive | inactive | 20 | Active | active | – | – |
| hu38SB19: humanized anti-CD38 antibody; VH SEQ ID NO: 66, VL SEQ ID NO: 62 or 64 | – | dose-dependent inhibition of tumor growth | – | Inactive | – | – | Active | – | potent ADCC | potent direct pro-apoptotic activity |
